Experimental data published in patent US4255183A, “Substituted phenyl urea and herbicides for use in paddy field” (Hokko Chemical Industry Co., Ltd., priority 1977, dated 1981).
Like-named read-outs stand apart in the source and are kept apart here.

Legend:
Dopatrium junceum = experiment: Test Example 5: Wagner pot test, herbicidal effect on Dopatrium junceum; type: in vivo; settings: 600 g/10a
Procedure: (§1) In a 1/7500 are Wagner pot, sieved paddy field soil (alluvial soil) was charged. Thereafter, in the center portion of the pot, 2 roots of paddy rice (Asahi species) at the 2- to 3-leaf stage were transplanted and 20 seeds of Bulrush per pot were seeded in the surface of the above soil. The pot was submerged at the depth of about 2 cm. The other Dopatrium junceum and umbrella plant were generated naturally. After seeding, when each of the weeds reached the same leaf age as defined in Table 5 given herein, a predetermined concentration of the emulsion prepared according to Example 4 was applied dropwise on the surface of the pot. The test was carried out by repeating the same test three times per area and the results were determined 20 days after the application of the chemicals with regard to the herbicidal effect and chemical injury on paddy rice on the basis of the evaluation index as shown below.
(§2) As the comparative chemicals Molinate, Benthiocarb and DCMU, those commercially available were used.
(§3) In the above table, the inhibition rate was calculated according to the method as described in Test Example 1.

[1] = test system: Echinochloa crus-galli var. oryzicola; experiment: Test Example 2: concrete pot test on killing effect, Echinochloa crus-galli var. oryzicola; type: in vivo; settings: Echinochloa crus-galli, 720 h
Procedure: (§4) In a Wagner pot of 1/500 are, paddy field soil (alluvial soil) was placed and 50 seeds of Echinochloa crus-galli var. oryzicola and 30 seeds of paddy rice were seeded in the surface layer of said soil and the submerging depth was kept at about 1 cm. When Echinochloa crus-galli var. oryzicola reached at the one leaf stage and 5-leaf stage, the emulsion of a predetermined concentration, prepared according to Example 4 was added dropwise. After 30 days from the treatment with the chemical, dry weights of Echinochloa crus-galli var. oryzicola and paddy rice were measured and the inhibition rate was calculated with reference to untreated area. [formula]
(§5) In a concrete pot of 1/400 are (50 cm×50 cm), paddy field soil (alluvial soil) was placed and 200 seeds of Echinochloa crus-galli var. oryzicola were seeded in 10 surface layer of said soil and the soil was submerged at about 3 cm depth. Before emergence of Echinochloa crus-galli var. oryzicola, paddy rice at 2.5-leaf stage (Asahi species) was transplanted at the rate of 8 stubs per pot, planting 3 seedlings per stub. At the one-leaf stage (3.5 leaves stage of paddy rice) and 5 leaves stage (7 leaves stage of paddy rice) of Echinochloa crus-galli var. oryzicola, the granule prepared according to Example 1 was applied. […] 30 Days after the treatment with the chemical, examination was made in the similar manner as Test Example 1 to obtain results as shown in Table 2.
(§6) In the table, as the comparative chemicals CPN, Benthiocarb, Molinate and Simetryne, those commercially available were used and the comparative chemicals A and B (as mentioned before) used were prepared according to the process for preparing the compound of this invention.

[2] = test system: Echinochloa crus-galli var. oryzicola; experiment: Test Example 4: field test in submerged directly seeded paddy field, Echinochloa crus-galli var. oryzicola; type: in vivo; settings: Echinochloa crus-galli, 504 h; 300 g/10 are, emulsion, 2- to 3-leaf stage, 21 days after application; read-out: Inhibition (%) of E. crus-galli var. oryzicola
Procedure: as §4
(§7) In a 10 m^2 paddy field, 30 g of Echinochloa crus-galli var. oryzicola seeds were seeded at the time of puddling and the depth of submerging was kept at 3-5 cm. 3 Days after the puddling, 50 g of paddy rice at the emergence stage (Asahi species) were seeded. When Echinochloa crus-galli var. oryzicola and paddy rice reached a 2- to 3-leaf stage, a predetermined dose of the emulsion prepared according to Example 4 was applied uniformly by means of a manual spraying machine. Test results were examined 21 days after the application of the chemicals in the similar manner as in Test Example 1.
(§8) The comparative chemical 1 used was that commercially available and the comparative chemical 2 used was prepared according to Example 4.

paddy rice [3] = experiment: whole plant or invertebrate; type: in vivo, paddy rice (Asahi species); settings: Oryza sativa, 720 h
Procedure: as §4, §5, §6

paddy rice [4] = experiment: Test Example 5: Wagner pot test, chemical injury on paddy rice; type: in vivo, paddy rice (Asahi species); settings: 600 g/10a; note: key: 5: Completely killed; 4: Considerably injured; 3: Moderately injured; 2: A little injured; 1: Slightly injured; 0: Not injured
Procedure: as §1, §2

Bulrush = experiment: Test Example 5: Wagner pot test, herbicidal effect on Bulrush; type: in vivo; settings: 600 g/10a
Procedure: as §1, §2, §3

Umbrella plant = experiment: Test Example 5: Wagner pot test, herbicidal effect on umbrella plant; type: in vivo; settings: 600 g/10a, 20 days after application
Procedure: as §1, §2, §3

paddy rice [5] = experiment: Test Example 4: field test in submerged directly seeded paddy field, paddy rice; type: in vivo, paddy rice (Asahi species); settings: Oryza sativa, 504 h; 300 g/10 are, emulsion, 2- to 3-leaf stage, 21 days after application
Procedure: as §4, §7, §8

[6] = leaf age 3, 20 days after application
[7] = read-out: Inhibition (%) by treatment at 1-leaf stage of E. crus-galli var. oryzicola, E. crus-galli var. oryzicola
[8] = read-out: Inhibition (%) by treatment at 5-leaf stage of E. crus-galli var. oryzicola, E. crus-galli var. oryzicola
[9] = read-out: Inhibition (%) by treatment at 1-leaf stage of E. crus-galli var. oryzicola, paddy rice
[10] = read-out: Inhibition (%) by treatment at 5-leaf stage of E. crus-galli var. oryzicola, paddy rice

CCN(CC)C(=O)SCc1ccc(Cl)cc1 [Benthiocarb, 4-chlorobenzyl-N,N-diethylthiolcarbamate]
Weed kill degree, Dopatrium junceum (Dopatrium junceum; leaf age 2, 20 days after application): 5 (100) | Weed kill degree, Dopatrium junceum (Dopatrium junceum; [6]): 5 (100) | inhibition at 1000 g/ha [1, 7]: 82% | inhibition at 3000 g/ha [1, 7]: 100% | inhibition at 9000 g/ha [1, 7]: 100% | inhibition at 1000 g/ha [1, 8]: 0% | inhibition at 3000 g/ha [1, 8]: 6% | inhibition at 9000 g/ha [1, 8]: 23% | inhibition at 3000 g/ha [2]: 76% | inhibition at 1000 g/ha (paddy rice [3]; [9]): 0% | inhibition at 3000 g/ha (paddy rice [3]; [9]): 10% | inhibition at 9000 g/ha (paddy rice [3]; [9]): 46% | inhibition at 1000 g/ha (paddy rice [3]; [10]): 0% | inhibition at 3000 g/ha (paddy rice [3]; [10]): 0% | inhibition at 9000 g/ha (paddy rice [3]; [10]): 10% | Chemical injury on paddy rice (paddy rice [4]; 3 tillers, 20 days after application): 0 | Chemical injury on paddy rice (paddy rice [4]; [6]): 2 | Weed kill degree, Bulrush (Bulrush; [6]): 2 (60-79) | Weed kill degree, Bulrush (Bulrush; leaf age 3-5, 20 days after application): 4 (90-99) | Weed kill degree, Umbrella plant (Umbrella plant; leaf age 2 (first group of columns)): 5 (100) | Weed kill degree, Umbrella plant (Umbrella plant; leaf age 2 (second group of columns)): 5 (100) | inhibition at 3000 g/ha (paddy rice [5]): 15%
